Consider 11 compounds from patent publication US9296720B2, “Carboxamide-substituted heteroaryl-pyrazoles and the use thereof” (AiCuris GmbH & Co. KG, priority 2011, dated 2016).

The structures appear in SMILES notation. Read-outs that look alike come from different tables or passages of the source.

What all share (format): cell-based
For experiment [1], the system named is HIV-1NL4-3 K103N-Y181C. The experiment can be described thus: Luminescence reduction assay, MT4 cells infected with HIV-1NL4-3 luciferase reporter virus, RT mutant K103N-Y181C. An excerpt:
(§1) For this assay, HIV-1NL4-3 reporter viruses are used, which carry the luciferase164 gene (lu164) instead of the nef gene. The viruses are generated by transfection of 293T cells with the corresponding proviral pNL4-3 plasmid (Lipofectamine Reagent, Invitrogen, Karlsruhe, Germany). Starting from the proviral plasmid-DNA, viruses with defined resistance mutations in the reverse transcriptase gene are produced with the “QuikChange II XL Site-Directed Mutagenesis Kit” (Stratagene, Cedar Creek, Tex., USA). Among other things, the following mutations are generated: A98G, A98G-K103N-V108I, A98S, F227C, F227L, G190A, G190S, K101E, K101Q-K103N, K103N, K103N-F227L, K103N-G190A, K103N-G190S, K103N-M230L, K103N-N348I, K103N-P225H, K103N-V108I, K103N-V108I-P225H, K103N-V179F-Y181C, K103N-Y181C, K103N-Y181C-G190A, L100I, L100I-K103N, L100I-K103N-V179I-Y181C, L100I-K103N-Y181C, L234I, N348I, P225H, P236L, V106A, V106A-E138K, V106A-F227C, V106A-F227L, V106I, V106I-Y188L, V106M, V108I, V179F-Y181C, V179I, V179I-Y181C, Y181C, Y181C-G190A, Y181C-M230L, Y181I, Y188L. MT4 cells infected with these reporter viruses (NIH AIDS Research and Reference Reagent Program) secrete luciferase into the medium, which makes possible the luminometric quantification of the virus replication.
(§2) For the batch of a 96-well MTP, 3 million MT4 cells are pelletized, suspended in 1 ml of RPMI 1640 medium without phenol red (Invitrogen, Karlsruhe, Germany)/10% FCS/2 mmol of L-glutamine/1% Pen/Strep (Invitrogen, Karlsruhe, Germany), and incubated together with a suitable amount of the corresponding HIV-1NL4-3 reporter virus for 2 hours at 37° C. (pellet infection). Non-adsorbed viruses are then washed out with PBS, the infected cells are pelletized again, and suspended in 8 ml of RPM 11640 medium without phenol red/2% or 10% FCS/2 mmol of L-glutamine/1% Pen/Strep. Therefrom, 80 μl per well is pipetted into a white 96-well MTP in 20 μl of test substance in a suitable dilution. In order to avoid boundary effects, the edge wells of the MTP are not used for substance dilutions. The second vertical row of the MTP contains only infected cells (virus control), and the eleventh vertical row contains only non-infected cells (cell control) in each case in RPMI 1640 medium without phenol red/2% or 10% FCS/2 mmol of L-glutamine/1% Pen/Strep. The other wells of the MTP contain the compounds according to the invention in different concentrations starting from the third vertical row, from which dilution of the test substances is carried out 3^7 times in three steps up to the tenth vertical row. The test substances are dissolved in DMSO, whereby the DMSO final concentration in the test batch is ultimately 1%. The test batches are incubated for 5 days at 37° C./5% CO2, and are luminometrically evaluated after the addition of 15 μl of Lu164-buffer (65 mmol of NaCl, 300 mmol of MES, pH 5.8, 5 mmol of glutathione and 1:200 coelenterazine (5 mg/ml in 30 μM of glutathione/DMSO) (P.J.K. GmbH, Kleinblittersdorf, Germany)). In the virus control, the resulting values are in the range of 1 million RLUs (relative light units), and in the cell control, the resulting values are 300 to 400 RLUs. The EC50 values of the test substances are determined as the concentration of the treated infected cells, in which the virus replication measured in RLUs is 50% of the untreated infected cells.

The test system of experiment [2] is HIV-1LAI Wild Type. The experiment can be described thus: AlamarBlue viability assay, HIV-1LAI-infected MT4 cells. To be noted: 10% FCS. How it is done:
For the batch of a 96-well MTP, 3 million PBLs are pelletized, suspended in 1 ml of RPMI 1640 medium/10% FCS/2 mmol of L-glutamine/1% Pen/Strep, and incubated together with a suitable amount of HIV-1LA1 (NIH AIDS Research & Reference Reagent Program, Germantown, USA) for 2 hours at 37° C. (pellet infection). Non-adsorbed viruses are then washed out with PBS, the infected cells are pelletized again, and suspended in 18 ml of RPMI 1640 medium/10% FCS/2 mmol of L-glutamine/1% Pen/Strep/interleukin-2 (40 U/ml). Therefrom, 180 μl per well is pipetted into a white 96-well MTP in 20 μl of test substance in a suitable dilution. As an alternative, after preparation of the substance dilutions, the HIV is added by pipetting in the MTP together with the cells and is no longer washed out (supernatant infection). In order to avoid boundary effects, the edge wells of the MTP are not used for substance dilutions. The second vertical row of the MTP contains only infected cells (virus control), and the eleventh vertical row contains only non-infected cells (cell control) in each case in RPMI 1640 medium/10% FCS/2 mmol of L-glutamine/1% Pen/Strep/interleukin-2 (40 U/ml). The other wells of the MTP contain the compounds according to the invention in different concentrations starting from the third vertical row, from which dilution of the test substances is carried out 3^7 times in three steps up to the tenth vertical row. The test substances are dissolved in DMSO, whereby the DMSO final concentration in the test batch is ultimately 1%. The test batches are incubated at 37° C./5% CO2. After 5 and 7 days, in each case 50 μl of cell-free supernatant is drawn off from each well in order to determine the amount of p24 contained by means of p24 ELISA (HIV-1 p24^CA Antigen Capture Assay Kit, NCI-Frederick Cancer Research and Development Center, Frederick, USA). From the resulting values of the photometric analysis (450/620 nm), the EC50 values of the test substances are determined as the concentration of the treated infected cells, in which the amount of p24 is 50% of the untreated infected cells.
As an alternative, MT4 cells are used for testing test substances instead of PBLs. HIV-1LA1-infected MT4 cells (MOI 0.01, supernatant infection) are incubated according to the above-described pattern in RPMI 1640 medium with 2% or 10% FCS/2 mmol of L-glutamine/1% Pen/Strep in the presence of test substances for 5 days at 37° C./5% CO2 (20 μl of substance dilution and 80 μl of cells/virus per well). Then, 10 μl of AlamarBlue (Invitrogen, Karlsruhe, Germany) is added to each well, and MTPs are incubated for 3 hours at 37° C., before the fluorimetric analysis is done (544/590 nm). The resulting values are approximately 30,000 in the case of untreated, non-infected cells, and approximately 6,000 in the case of untreated infected cells. In the low concentration range, the EC50 values of the test substances are determined as the concentration of the treated infected cells, in which the fluorescence is 50% of the untreated non-infected cells (in each case relative to the values of the untreated infected cells). In addition, in the high concentration range, the CC50 values of the test substances are determined as the concentration of the treated infected cells, in which the fluorescence is 50% of the untreated, non-infected cells (in each case relative to the values of the untreated infected cells).

Experiment [3] has as its system HIV-1NL4-3 Wild Type. Nature of the experiment: Luminescence reduction assay, MT4 cells infected with HIV-1NL4-3 luciferase reporter virus, wild type. To be noted: 2% FCS.
Description: as §1, §2

[4] abbreviates: read-out: EC50 (μM) MT4 Cells HIV-1NL4-3 K103N-Y181C 2% FCS, MT4 cells, HIV-1NL4-3 K103N-Y181C, 2% FCS.
Setting [5] is: Human immunodeficiency virus 1, MT4, read-out: EC50 (μM) MT4 Cells HIV-1NL4-3 K103N-Y181C 2% FCS, MT4 cells, HIV-1NL4-3 K103N-Y181C, 2% FCS.
The mark [6] stands for this setting: Human immunodeficiency virus 1, MT4, MT4 cells.

Regarding `O=C(c1cc(-c2cc(F)cc(Cl)c2)n(-c2cccnc2)n1)N1CC[S+]([O-])C1` (racemic) [Example 6, [5-(3-Chloro-5-fluorophenyl)-1-(pyridin-3-yl)-1H-pyrazol-3-yl](1-oxido-1,3-thiazolidin-3-yl)methanone], the EC50 in experiment [1] (setting [4]) came to 1.36 µM; in experiment [2] (MT4 cells), 0.201 µM; in experiment [3] (MT4 cells) it was 0.054 µM.
In the case of `O=C(c1cc(-c2cc(F)cc(Cl)c2)n(-c2cccnc2)n1)N1CC[S+]([O-])C1` (racemic) [Example 6-1, [5-(3-Chloro-5-fluorophenyl)-1-(pyridin-3-yl)-1H-pyrazol-3-yl](1-oxido-1,3-thiazolidin-3-yl)methanone], the figures for the EC50 in experiment [1] (setting [4]), in experiment [2] (MT4 cells) and in experiment [3] (MT4 cells) were greater than 3.3 µM, 1.49 µM and 0.255 µM, respectively.
For `O=C(c1cc(-c2cc(F)cc(Cl)c2)n(-c2cccnc2)n1)N1CC[S+]([O-])C1` (racemic) [Example 6-2, [5-(3-Chloro-5-fluorophenyl)-1-(pyridin-3-yl)-1H-pyrazol-3-yl](1-oxido-1,3-thiazolidin-3-yl)methanone], the EC50 in experiment [1] (setting [4]) turned out to be 0.986 µM; in experiment [2] (MT4 cells) it was 0.112 µM; in experiment [3] (MT4 cells), 0.007 µM.
With `O=C(c1cc(-c2cc(Br)cc(OC(F)(F)F)c2)n(-c2cccnc2)n1)N1CC[S+]([O-])C1` (racemic) [Example 31, {5-[3-Bromo-5-(trifluoromethoxy)phenyl]-1-(pyridin-3-yl)-1H-pyrazol-3-yl}(1-oxido-1,3-thiazolidin-3-yl)methanone], the values for the EC50 in experiment [1] (setting [4]), in experiment [2] (MT4 cells) and in experiment [3] (MT4 cells) were 0.045 µM, 0.18 µM and 0.017 µM, respectively.
With `O=C(c1cc(-c2cc(Br)cc(OC(F)(F)F)c2)n(-c2cccnc2)n1)N1CC[S+]([O-])C1` (racemic) [Example 31-1, {5-[3-Bromo-5-(trifluoromethoxy)phenyl]-1-(pyridin-3-yl)-1H-pyrazol-3-yl}(1-oxido-1,3-thiazolidin-3-yl)methanone], the EC50 in experiment [1] (setting [4]) amounted to 0.981 µM; in experiment [2] (MT4 cells), 0.82 µM; in experiment [3] (MT4 cells) it was 0.084 µM.
With `O=C(c1cc(-c2cc(Br)cc(OC(F)(F)F)c2)n(-c2cccnc2)n1)N1CC[S+]([O-])C1` (racemic) [Example 31-2, {5-[3-Bromo-5-(trifluoromethoxy)phenyl]-1-(pyridin-3-yl)-1H-pyrazol-3-yl}(1-oxido-1,3-thiazolidin-3-yl)methanone], the EC50 in experiment [1] (setting [4]) was found to be 0.041 µM; in experiment [2] (MT4 cells) it was 0.336 µM; in experiment [3] (MT4 cells), 0.01 µM.
With `O=C(c1cc(-c2cc(Br)cc(OC(F)(F)F)c2)n(-c2ccc(Cl)nc2)n1)N1CC[S+]([O-])C1` (racemic) [Example 37, {5-[3-Bromo-5-(trifluoromethoxy)phenyl]-1-(6-chloropyridin-3-yl)-1H-pyrazol-3-yl}(1-oxido-1,3-thiazolidin-3-yl)methanone], the EC50 was 0.005 µM in experiment [1] (setting [5]), 2.32 µM in experiment [2] (setting [6]) and 0.004 µM in experiment [3] (setting [6]).
In the case of `O=C(c1cc(-c2cc(F)cc(OC(F)(F)F)c2)n(-c2cccnc2)n1)N1CC[S+]([O-])C1` (racemic) [Example 60, {5-[3-Fluoro-5-(trifluoromethoxy)phenyl]-1-(pyridin-3-yl)-1H-pyrazol-3-yl}(1-oxido-1,3-thiazolidin-3-yl)methanone], the values for the EC50 in experiment [1] (setting [4]), in experiment [2] (MT4 cells) and in experiment [3] (MT4 cells) were 0.621 µM, 0.997 µM and 0.077 µM, respectively.
Take `O=C(c1cc(-c2cc(F)cc(OC(F)(F)F)c2)n(-c2cccnc2)n1)N1CC[S+]([O-])C1` (racemic) [Example 60-1, {5-[3-Fluoro-5-(trifluoromethoxy)phenyl]-1-(pyridin-3-yl)-1H-pyrazol-3-yl}(1-oxido-1,3-thiazolidin-3-yl)methanone]: the EC50 is greater than 3.3 µM in experiment [1] (setting [4]), greater than 3.3 µM in experiment [2] (MT4 cells) and 0.431 µM in experiment [3] (MT4 cells).
Take `O=C(c1cc(-c2cc(F)cc(OC(F)(F)F)c2)n(-c2cccnc2)n1)N1CC[S+]([O-])C1` (racemic) [Example 60-2, {5-[3-Fluoro-5-(trifluoromethoxy)phenyl]-1-(pyridin-3-yl)-1H-pyrazol-3-yl}(1-oxido-1,3-thiazolidin-3-yl)methanone]: the EC50 in experiment [1] (setting [4]) was 0.446 µM; in experiment [2] (MT4 cells), 0.797 µM; in experiment [3] (MT4 cells), 0.084 µM.
For the compound `O=C(c1cc(-c2cc(F)cc(OCC(F)(F)F)c2)n(-c2cccnc2)n1)N1CC[S+]([O-])C1` (racemic) [Example 73, {5-[3-Fluoro-5-(2,2,2-trifluoroethoxy)phenyl]-1-(pyridin-3-yl)-1H-pyrazol-3-yl}(1-oxido-1,3-thiazolidin-3-yl)methanone], the EC50 in experiment [1] (setting [5]) came out at 0.951 µM; in experiment [2] (setting [6]), 0.243 µM; in experiment [3] (setting [6]), 0.018 µM.
